The source of these data is ChEMBL document CHEMBL1128431, “Specific sequestering agents for the actinides. 28. Synthesis and initial evaluation of multidentate 4-carbamoyl-3-hydroxyl-1-methyl-2(1H)-pyridinone ligands for in vivo plutonium(IV) chelation” (1995).

The test system of experiment [1] is Mus musculus. The experiment in a line: Percent of Pu(IV) retained after 24 hours in kidneys of mice under the effect of 30 umol/kg (i.p.) of ligand administered 1 hr after iv injection of Pu(IV) citrate. Type of experiment: functional, Kidney.
The test system of experiment [2] is Mus musculus. The experiment in a line: % Pu(IV) retained after 24 hr in whole body of mice under the effect of 30uM/kg(po, gastric intubation) of ligand administered 3 min after iv injection of Pu(IV) citrate. Type of experiment: functional.
In experiment [3] the test system is Mus musculus. As to the kind of experiment: Percent of Pu(IV) excreted after 24 hours in urine under the effect of 30 umol/kg (i.p.) of ligand administered 1 hr after iv injection of Pu(IV) citrate. Type of experiment: functional.
In experiment [4] the test system is Mus musculus. As to the kind of experiment: % Pu(IV) excreted at 4-24 hr in urine under the effect of 30uM/kg(po, gastric intubation) of ligand administered 3 min after iv injection of Pu(IV) citrate.
Experiment [5] relates to Mus musculus. The experiment in a line: Percent of Pu(IV) retained after 24 hours in whole body of mice under the effect of 30 umol/kg (i.p.) of ligand administered 1 hr after iv injection of Pu(IV) citrate. Type of experiment: functional.
Experiment [6] deals with Mus musculus. As to the kind of experiment: % Pu(IV) retained after 24 hours in kidneys of mice under the effect of 30uM/kg(po, gastric intubation) of ligand administered 3 min after iv injection of Pu(IV) citrate. Type of experiment: functional, Kidney.
In experiment [7] the test system is Mus musculus. The experiment in a line: Percent of Pu(IV) excreted after 24 hours in GI contents and feces under the effect of 30 umol/kg (i.p.) of ligand administered 1 hr after iv injection of Pu(IV) citrate. Type of experiment: functional.
For experiment [8], the system named is Mus musculus. As to the kind of experiment: Percent of Pu(IV) retained after 24 hours in skeleton of mice under the effect of 30 umol/kg (i.p.) of ligand administered 1 hr after iv injection of Pu(IV) citrate. Type of experiment: functional.
The subject of experiment [9] is Mus musculus. The experiment in a line: %Pu(IV) excreted after 24 hr in GI contents and feces under the effect of 30uM/kg(po, gastric intubation) of ligand administered 3 min after iv injection of Pu(IV) citrate. Type of experiment: functional.
Experiment [10] relates to Mus musculus. As to the kind of experiment: Percent of Pu(IV) retained after 24 hours in liver of mice under the effect of 30 umol/kg (i.p.) of ligand administered 1 hr after iv injection of Pu(IV) citrate. Type of experiment: functional.
Experiment [11] relates to Mus musculus. The experiment in a line: % Pu(IV) retained after 24 hours in skeleton of mice under the effect of 30uM/kg(po, gastric intubation) of ligand administered 3 min after iv injection of Pu(IV) citrate. Type of experiment: functional.
Experiment [12] deals with Mus musculus. As to the kind of experiment: % Pu(IV) retained after 24 hours in soft tissue of mice under the effect of 30uM/kg(po, gastric intubation) of ligand administered 3 min after iv injection of Pu(IV) citrate. Type of experiment: functional.
The subject of experiment [13] is Mus musculus. As to the kind of experiment: % Pu(IV) retained after 24 hours in liver of mice under the effect of 30uM/kg(po, gastric intubation) of ligand administered 3 min after iv injection of Pu(IV) citrate. Type of experiment: functional.
Experiment [14] relates to Mus musculus. As to the kind of experiment: % Pu(IV) excreted at 0-4 hr in urine under the effect of 30uM/kg(po, gastric intubation) of ligand administered 3 min after iv injection of Pu(IV) citrate. Type of experiment: functional.
Experiment [15] relates to Mus musculus. The experiment in a line: Percent of Pu(IV) retained after 24 hours in soft tissue of mice under the effect of 30 umol/kg (i.p.) of ligand administered 1 hr after iv injection of Pu(IV) citrate. Type of experiment: functional.

Consider `Cn1ccc(C(=O)NCCCCCNC(=O)c2ccn(C)c(=O)c2O)c(O)c1=O`, for which the ID with Mus musculus [1] was determined as 0.3%; in the experiment with Mus musculus [2] it was 54%; in the experiment on Mus musculus [3], 18%; in the experiment on Mus musculus [4] it was 13%; in the experiment with Mus musculus [5], 16%; in the experiment on Mus musculus [6], 0.8%. The ID with Mus musculus [7] is reported as 67%; with Mus musculus [8], 10%; with Mus musculus [9] it was 22%; in the experiment on Mus musculus [10], 3.1%; in the experiment with Mus musculus [11], 24%; in the experiment with Mus musculus [12], 3.2%. For the same molecule, the ID in the experiment with Mus musculus [13] amounted to 25%; with Mus musculus [14] it was 10%; in the experiment on Mus musculus [15] it was 1.9%.

As for `Cn1ccc(C(=O)NCc2cc(CNC(=O)c3ccn(C)c(=O)c3O)cc(CNC(=O)c3ccn(C)c(=O)c3O)c2)c(O)c1=O`, the ID in the experiment with Mus musculus [1] turned out to be 0.9%; in the experiment with Mus musculus [2] it was 82%; in the experiment with Mus musculus [3], 8%; in the experiment on Mus musculus [4], 6%; with Mus musculus [5], 22%; in the experiment with Mus musculus [6] it was 1.2%. The ID in the experiment on Mus musculus [7] is given as 70%; with Mus musculus [8], 12%; in the experiment on Mus musculus [9], 5.2%; in the experiment with Mus musculus [10], 6.1%; with Mus musculus [11], 34%; in the experiment with Mus musculus [12] it was 7.5%. In addition, the ID in the experiment with Mus musculus [13] was 40%; with Mus musculus [14], 6.4%; with Mus musculus [15], 3%.

Consider `Cn1ccc(C(=O)NCCCCCCNC(=O)c2ccn(C)c(=O)c2O)c(O)c1=O`, for which the ID with Mus musculus [1] was found to be 0.5%; in the experiment with Mus musculus [2] it was 76%; in the experiment with Mus musculus [3], 14%; in the experiment on Mus musculus [4] it was 6.9%; with Mus musculus [5], 23%; in the experiment on Mus musculus [6], 0.6%. The ID in the experiment with Mus musculus [7] was 63%; in the experiment with Mus musculus [8], 12%; in the experiment with Mus musculus [9] it was 9.8%; in the experiment with Mus musculus [10] it was 6.5%; with Mus musculus [11], 25%; with Mus musculus [12] it was 6.2%. Also, the ID came out at 44% in the experiment on Mus musculus [13], 7.3% with Mus musculus [14] and 3.7% with Mus musculus [15].
